Reference: ChEMBL document CHEMBL1134892, “Novel inhibitors of plasminogen activator inhibitor-1: development of new templates from diketopiperazines” (Bioorg Med Chem Lett, 2002)

Molecular target: Plasminogen activator inhibitor 1 (Homo sapiens, UniProt P05121)
Assay: Inhibitory concentration required against Plasminogen activator inhibitor 1.

Plasminogen activator inhibitor 1, sequence (P05121 whole entry): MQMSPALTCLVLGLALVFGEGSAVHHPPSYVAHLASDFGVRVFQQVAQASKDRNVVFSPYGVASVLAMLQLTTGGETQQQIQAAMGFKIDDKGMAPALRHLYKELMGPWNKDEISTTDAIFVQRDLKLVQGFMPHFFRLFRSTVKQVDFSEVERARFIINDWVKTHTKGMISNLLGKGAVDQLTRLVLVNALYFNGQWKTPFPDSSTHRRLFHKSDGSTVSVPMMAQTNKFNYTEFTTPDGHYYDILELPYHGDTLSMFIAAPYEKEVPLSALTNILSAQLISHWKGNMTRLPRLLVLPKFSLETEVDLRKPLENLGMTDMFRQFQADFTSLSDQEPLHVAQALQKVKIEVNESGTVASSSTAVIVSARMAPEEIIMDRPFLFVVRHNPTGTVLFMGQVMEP

SMILES: O=C(Nc1ccc(/C=C2\NC(=O)c3ccccc3C2=O)cc1)c1cccs1
- IC50: 4 µM

SMILES: COc1cccc(-c2[nH]c(=O)c3ccccc3c2O)c1
- IC50: 9.8 µM

SMILES: Oc1nc(-c2ccc(Cl)cc2)c(O)c2ccccc12
- IC50: 23.6 µM

SMILES: O=c1[nH]/c(=C\c2nccs2)c(=O)[nH]/c1=C\c1ccc(OCCCc2cccnc2)cc1
- IC50: 0.6 µM

SMILES: O=C(Nc1cc(C(F)(F)F)cc(C(F)(F)F)c1)c1nc(O)c2ccccc2c1O
- IC50: 13.7 µM

SMILES: O=C(Nc1ccc(/C=C2\NC(=O)c3ccccc3C2=O)cc1)c1ccccc1
- IC50: 8.6 µM

SMILES: O=C(Nc1ccc(Oc2ccc(OC(F)(F)F)cc2)cc1)c1[nH]c(=O)c2ccccc2c1O
- IC50: 1 µM

SMILES: O=C(Nc1ccc(/C=C2\NC(=O)c3ccccc3C2=O)cc1)c1ccco1
- IC50: 1.9 µM

SMILES: O=C1N/C(=C\c2ccc(OCCCc3cccnc3)cc2)C(=O)c2ccccc21
- IC50: 18 µM

SMILES: Oc1nc(-c2ccccc2)c(O)c2ccccc12
- IC50: 50 µM

SMILES: O=c1[nH]/c(=C\c2ccc(OCCCc3cccnc3)cc2)c(=O)[nH]/c1=C\c1ccccc1
- IC50: 1 µM

SMILES: O=c1[nH]c(-c2ccc(F)cc2)c(O)c2ccccc12
- IC50: 39.5 µM

SMILES: O=c1[nH]/c(=C\c2ccccn2)c(=O)[nH]/c1=C\c1ccc(OCCCc2cccnc2)cc1
- IC50: 0.3 µM

SMILES: O=c1[nH]/c(=C\c2ccc(OCCCc3cccnc3)cn2)c(=O)[nH]/c1=C\c1ccccc1
- IC50: > 50 µM

SMILES: Cn1c(=O)/c(=C/c2ccc(OCCCc3cccnc3)cc2)[nH]c(=O)/c1=C/c1ccccc1
- IC50: 12 µM

SMILES: O=C(Nc1ccc(Cl)cc1)c1nc(O)c2ccccc2c1O
- IC50: 24 µM

SMILES: O=C(Nc1ccc(Cl)c(Cl)c1)c1nc(O)c2ccccc2c1O
- IC50: 14 µM
